Measured values from patent US9314026B2, “Heterocyclylpyri(mi)dinylpyrazole” (Bayer Intellectual Property GmbH, priority 2011, dated 2016).

Assays:
[1] = determination of the log P values by HPLC on a reverse phase column (C18), EEC-Directive 79/831 Annex V.A8; format: physicochemical
Procedure, shortened: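 Log P determined per EEC-Directive 79/831 Annex V.A8 by reverse-phase (C18) HPLC (methods A, B) or UPLC (method C), with mass detection.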

[2] = tested on: Sphaerotheca fuliginea; experiment: Sphaerotheca test (cucumber)/preventive; format: in vivo; details: Podosphaera fuliginea, 168 h, 500 ppm of active ingredient, preventive, evaluated 7 days after inoculation, 0% = untreated control, 100% = no disease, read-out: efficacy
Procedure: (§1) Sphaerotheca Test (Cucumber)/Preventive Solvent: 49 parts by weight of N,N-Dimethylformamide Emulsifier: 1 part by weight of Alkylarylpolyglycolether To produce a suitable preparation of active compound, 1 part by weight of active compound is mixed with the stated amounts of solvent and emulsifier, and the concentrate is diluted with water to the desired concentration. To test for preventive activity, young plants are sprayed with the preparation of active compound at the stated rate of application. One day after this treatment, the plants are inoculated with an aqueous spore suspension of Sphaerotheca fuliginea.

[3] = tested on: Alternaria solani; experiment: Alternaria test (tomato)/preventive; format: in vivo; details: 168 h, 500 ppm of active ingredient, preventive, evaluated 7 days after inoculation, read-out: efficacy
Procedure: as §1, with “Alternaria” for “Sphaerotheca”, “(Tomato)/Preventive” for “(Cucumber)/Preventive”, “Alternaria solani. […] Then the plants are placed in an incubation cabinet at approximately 20° C. and a relative atmospheric humidity of 96%.” for “Sphaerotheca fuliginea.”

[4] = tested on: Leptosphaeria nodorum; experiment: Leptosphaeria test (wheat)/preventive; format: in vivo; details: Parastagonospora nodorum, 500 ppm of active ingredient, preventive, evaluated 7-9 days after inoculation, read-out: efficacy
Procedure: (§2) Leptosphaeria Test (Wheat)/Preventive Solvent: 49 parts by weight of N,N-Dimethylformamide Emulsifier: 1 part by weight of Alkylarylpolyglycolether To produce a suitable preparation of active compound, 1 part by weight of active compound is mixed with the stated amounts of solvent and emulsifier, and the concentrate is diluted with water to the desired concentration. To test for preventive activity, young plants are sprayed with a preparation of active compound at the stated rate of application. One day after this treatment, the plants are inoculated with an aqueous spore suspension of Leptosphaeria nodorum.

[5] = tested on: Pyrenophora teres; experiment: Pyrenophora test (barley)/preventive; format: in vivo; details: 500 ppm of active ingredient, preventive, evaluated 7-9 days after inoculation, read-out: efficacy
Procedure: as §1, with “Pyrenophora” for “Sphaerotheca”, “(Barley)/Preventive” for “(Cucumber)/Preventive”, “Pyrenophora teres.” for “Sphaerotheca fuliginea.”

[6] = tested on: Puccinia recondita; experiment: Puccinia test (wheat)/preventive; format: in vivo; details: 500 ppm of active ingredient, preventive, evaluated 7-9 days after inoculation, read-out: efficacy
Procedure: as §2, with “Puccinia Test (Wheat)/Preventive” for “Leptosphaeria Test (Wheat)/Preventive”, “sprayed with the preparation of” for “sprayed with a preparation of”, “suspension of Puccinia recondita.” for “suspension of Leptosphaeria nodorum.”

[7] = tested on: Pyricularia oryzae; experiment: whole plant or invertebrate; format: in vivo; details: 168 h, read-out: efficacy
[8] = tested on: Phytophthora infestans; experiment: whole plant or invertebrate; format: in vivo; details: 72 h, read-out: efficacy
[9] = tested on: Plasmopara viticola; experiment: Plasmopara test (grapevines)/preventive; format: in vivo; details: 100 ppm of active ingredient, preventive, evaluated 6 days after inoculation
Procedure: Plasmopara Test (Grapevines)/Preventive Solvent: 24.5 parts by weight of acetone • 24.5 parts by weight of dimethylacetamide Emulsifier: 1 part by weight of alkylaryl polyglycol ether To produce a suitable preparation of active compound, 1 part by weight of active compound is mixed with the stated amounts of solvent and emulsifier, and the concentrate is diluted with water to the desired concentration. To test for preventive activity, young plants are sprayed with the preparation of active compound at the stated rate of application. […] The plants are then misted and placed for 1 day in an incubation cabinet.

[10] = tested on: Botrytis cinerea; experiment: Botrytis test (beans)/preventive; format: in vivo; details: 48 h, 100 ppm of active ingredient, preventive, size of lesions evaluated 2 days after inoculation, read-out: efficacy
Procedure: Botrytis Test (Beans)/Preventive Solvent: 24.5 parts by weight of acetone • 24.5 parts by weight of dimethylacetamide Emulsifier: 1 part by weight of alkylaryl polyglycol ether To produce a suitable preparation of active compound, 1 part by weight of active compound is mixed with the stated amounts of solvent and emulsifier, and the concentrate is diluted with water to the desired concentration. To test for preventive activity, young plants are sprayed with the preparation of active compound. After the spray coating has dried on, 2 small pieces of agar covered with growth of Botrytis cinerea are placed on each leaf.

[11] = tested on: Septoria tritici; experiment: Septoria tritici-test (wheat)/preventive; format: in vivo; details: 500 ppm of active ingredient, preventive, evaluated 21 days after inoculation
Procedure: Septoria tritici-Test (Wheat)/Preventive Solvent: 49 parts by weight of n,n-dimethylacetamid Emulsifier: 1 part by weight of alkylaryl polyglycol ether To produce a suitable preparation of active compound, 1 part by weight of active compound or active compound combination is mixed with the stated amounts of solvent and emulsifier, and the concentrate is diluted with water to the desired concentration. To test for preventive activity, young plants are sprayed with the preparation of active compound or active compound combination at the stated rate of application. After the spray coating has been dried, the plants are sprayed with a spore suspension of Septoria tritici.

[12] = tested on: Fusarium nivale (var. majus); experiment: Fusarium nivale (var. majus)-test (wheat)/preventive; format: in vivo; details: Microdochium nivale, 120 h, 500 ppm of active ingredient, preventive, evaluated 5 days after inoculation, read-out: efficacy
Procedure: Fusarium nivale (Var. Majus)-Test (Wheat)/Preventive Solvent: 49 parts by weight of n,n-dimethylacetamid Emulsifier: 1 part by weight of alkylaryl polyglycol ether To produce a suitable preparation of active compound, 1 part by weight of active compound or active compound combination is mixed with the stated amounts of solvent and emulsifier, and the concentrate is diluted with water to the desired concentration. To test for preventive activity, young plants are sprayed with the preparation of active compound or active compound combination at the stated rate of application. After the spray coating has been dried, the plants are slightly injured by using a sandblast and afterwards they are sprayed with a conidia suspension of Fusarium nivale (var. majus).

[13] = tested on: Fusarium graminearum; experiment: whole plant or invertebrate; format: in vivo; details: in Hordeum vulgare, 120 h, read-out: efficacy
[14] = tested on: Venturia inaequalis; experiment: Venturia test (apples)/preventive; format: in vivo; details: 100 ppm of active ingredient, preventive, evaluated 10 days after inoculation
Procedure: Venturia Test (Apples)/Preventive Solvent: 24.5 parts by weight of acetone • 24.5 parts by weight of dimethylacetamide Emulsifier: 1 part by weight of alkylaryl polyglycol ether To produce a suitable preparation of active compound, 1 part by weight of active compound is mixed with the stated amounts of solvent and emulsifier, and the concentrate is diluted with water to the desired concentration. To test for preventive activity, young plants are sprayed with the preparation of active compound at the stated rate of application.

| Compound | chromatographic logP [1] | pest or weed control at 500 ppm [2] [%] | pest or weed control at 500 ppm [3] [%] | pest or weed control at 500 ppm [4] [%] | pest or weed control at 500 ppm [5] [%] | pest or weed control at 500 ppm [6] [%] | pest or weed control at 500 ppm [7] [%] | pest or weed control at 100 ppm [8] [%] | efficacy [9] [%] | pest or weed control at 100 ppm [10] [%] | efficacy [11] [%] | pest or weed control at 500 ppm [12] [%] | pest or weed control at 500 ppm [13] [%] | efficacy [14] [%] |
| --- | --- | --- | --- | --- | --- | --- | --- | --- | --- | --- | --- | --- | --- | --- |
| CC(=O)N(C(C)=O)c1cc(-c2c(-c3ccc(F)cc3)nn3c2CCCC3)ccn1 [Example 1, N-acetyl-N-{4-[2-(4-fluorophenyl)-4,5,6,7-tetrahydropyrazolo[1,5-a]pyridin-3-yl]pyridin-2-yl}acetamide] | 2.42 | 94 | 100 | 95 | 95 | 100 | 80 | 94 | 75 | 88 | 100 | 100 | 100 |  |
| CCC(=O)N(C(C)=O)c1cc(-c2c(-c3ccc(F)cc3)nn3c2CCC3)ccn1 [Example 5, N-acetyl-N-{4-[2-(4-fluorophenyl)-5,6-dihydro-4H-pyrrolo[1,2-b]pyrazol-3-yl]pyridin-2-yl}propanamide] | 2.43 | 100 | 90 | 95 | 100 | 100 | 95 | 83 | 94 | 100 | 86 | 100 | 92 | 99 |
| CCC(=O)N(C(C)=O)c1cc(-c2c(-c3ccc(F)cc3)nn3c2CCC3C)ccn1 (stereo not shown) [Example 6, N-acetyl-N-{4-[2-(4-fluorophenyl)-6-methyl-5,6-dihydro-4H-pyrrolo[1,2-b]pyrazol-3-yl]pyridin-2-yl}propanamide] | 2.78 | 95 | 70 | 95 | 100 | 100 | 90 | 91 | 94 | 89 | 86 | 100 | 83 | 98 |
| CCC(=O)N(C(=O)CC)c1cc(-c2c(-c3ccc(F)cc3)nn3c2CCC3)ccn1 [Example 7, N-{4-[2-(4-fluorophenyl)-5,6-dihydro-4H-pyrrolo[1,2-b]pyrazol-3-yl]pyridin-2-yl}-N-propionylpropanamide] | 2.81 | 98 | 90 | 90 | 95 | 95 | 70 | 95 | 100 | 99 | 86 | 100 | 92 | 100 |
